How the values were obtained:
NK cells = test: CD56 and CD16 surface expression on purified NK cells (flow); type: cell-based, human; conditions: lenalidomide 72 hours
Procedure: FIG. 4B: Lenalidomide treatment increases percentage of CD56+/[…] cells. Negatively selected NK cells were incubated with Lenalidomide (0.5 μM) or vehicle control. CD56 and CD16 surface expression was analyzed by flow after 72 h of treatment. The graphs show, respectively, percentage change CD56+/CD16+ (left panel, N=12, p<0.01) and CD56−/CD16+ (right panel, N=12, p<0.005) double positive cells.
(§1) For ADCC experiments, CD56^+ and CD19^+ cells were negatively purified from whole blood obtained from either healthy volunteers or CLL subjects by magnetic-activated cell sorting according to the manufacturer's recommendations (MiniMACS; Miltenyi Biotec, Auburn, Calif.). The purity of enriched populations was always greater than 95% of the total yield as detected by CD19 and CD3 staining.

CLL cells [1] = test: ADCC, 4-hour 51Cr-release assay; type: cell-based, human
Procedure: as §1
ADCC activity was determined by standard 4-hour ^51Cr-release assay. ^51Cr-labeled target cells (10^5 CLL cells/mL) were incubated with media alone or in the presence of various antibodies (10 μg/mL) at 37° C. for 30 minutes. Unbound antibody was washed off and the cells plated at 10^4 cells/well. Effector cells (natural killer [NK] cells from healthy donors or CLL subjects) were then added to the plates at indicated effector-to-target (E:T) ratios. After a 4-hour incubation, supernatants were removed and measured using a gamma counter. The percentage of specific cell lysis was determined by the equation: % lysis=100×(ER−SR)/(MR−SR), where ER, SR, and MR represent experimental, spontaneous, and maximum release, respectively. Data were normalized to the untreated control.

CD20 = test: Immunophenotyping (flow cytometry) of CD20 on CLL cells; type: cell-based, human
Procedure: (§2) Immunophenotyping was performed to determine the percentage and mean fluorescence intensity of CD20, CD19, CD5, CD23, CD38, CD3, and CD52 on CLL cells relative to a specific isotype control. Cells (10^6) were washed in PBS, stained with fluorochrome-labeled antibodies at 4° C., then rinsed in PBS and analyzed by flow cytometry (EPICS-XL; Beckman Coulter, Fullerton, Calif.). A total of 10,000 events were collected and analyzed using Windows Multiple Document Interface for Flow Cytometry (WinMDI). CD20, CD19, CD3, CD5, CD23, and CD38 antibodies were obtained from BD Biosciences (San Jose, Calif.), and CD52 antibody was obtained from Serotec (Raleigh, N.C.).
All analyses were performed by the Center for Biostatistics, The Ohio State University. Mixed effects models were fitted to the cytotoxicity data. Random effects associated with the interactions were always included in the models to ensure that error was not underestimated. SPSS software, version 13.0 (SPSS, Chicago, Ill.) was used for the statistical analysis. Nonparametric paired Wilcoxon signed ranked tests were performed to examine both the proportion and mean fluorescence intensity change of cells expressing specific antigens after treatment with lenalidomide or media for 48 hours. A paired t test was used to evaluate whether there was a change in CD20 expression level between cells treated with lenalidomide and untreated control.

Raji cell line xenograft = conditions: Raji xenograft mouse, lenalidomide alone; cited from earlier work
CD5 = test: Immunophenotyping (flow cytometry) of CD5 on CLL cells; type: cell-based, human; conditions: 0.5 μM, vs vehicle
Procedure: as §2

CLL cells [2] = test: Apoptosis of CLL cells with lenalidomide alone; type: cell-based, human; conditions: 0.5 μM lenalidomide, 48 or 72 hours
Procedure: CLL B cells were isolated by Ficoll centrifugation using Rosette-Sep reagent (StemCell Technologies, Vancouver, BC) according to the manufacturer's instructions. CLL cells were incubated in RPMI 1640 medium supplemented with 10% heat-inactivated human serum (Valley Biomedical, Winchester, Va.), 2 mM L-glutamine (Invitrogen, Carlsbad, Calif.), and 100 U/mL penicillin/100 μg/mL streptomycin (Sigma-Aldrich, St Louis, Mo.) at 37° C. in 5% CO2.
In addition, samples with no treatment or crosslinker alone were collected at matched time points. […]
Cytotoxicity results were expressed as percentage of total positive cells over untreated control [% positive cells=(% annexin^+ and/or PI^+ cells of treatment group)−(% annexin^+ and/or PI^+ cells of untreated control)].

CD20 mRNA = test: Real-time RT-PCR of CD20 mRNA in CLL cells; type: cell-based, human; conditions: 24 and 48 hours, compared with vehicle control
Procedure: RNA was extracted with TRIzol reagent (Invitrogen) according to the manufacturer's directions and converted to cDNA with the SuperScript First-Strand Synthesis System (Invitrogen). Real-time polymerase chain reaction was performed using custom-designed primers for CD20 (ID: Hs00544819_m1; Applied Biosystems, Foster City, Calif.) and an ABI Prism 7700 sequence detection system (Applied Biosystems). The expression of CD20 relative to an internal control gene was calculated by plotting the Ct (cycle number), and the average relative expression for each group was determined using the comparative method (2^−Ct).^24
The inventors herein then determined whether the mechanism by which lenalidomide down-regulates CD20 antigen was via decreased transcription. CD20 mRNA expression level was assessed by real-time reverse-transcribed polymerase chain reaction (RT-PCR) in lenalidomide- and vehicle-treated CLL cells at 24 and 48 hours.

[3] = dose range 0.05-3 μM, evaluated at 24, 48 and 72 hours

Nc1cccc2c1CN(C1CCC(=O)NC1=O)C2=O (stereo not drawn) [lenalidomide]
percentage of CDC16+/CD56− cells (NK cells; N=12, P<0.005 (vehicle 35% ±13%)): 20% ±11%
percentage of CD16+/CD56+ cells (NK cells; N=12, P<0.01 (vehicle 18% ±10%)): 31% ±14%
rituximab-mediated ADCC (CLL cells [1]; cotreatment of autologous NK cells and primary CLL cells, 0.5 μM, 72 hours, vs NK-only controls, N=2, P=0.02): diminished
rituximab-mediated ADCC (CLL cells [1]; lenalidomide-pretreated CLL B cells, allogeneic NK cells, N=5, P<0.05): decrease
rituximab-mediated ADCC (CLL cells [1]; lenalidomide-pretreated CLL B cells, autologous NK cells, N=2, P<0.05): decrease
rituximab-mediated ADCC against target CLL subject cells (CLL cells [1]; lenalidomide-treated NK cells from a healthy donor, N=4, P=0.009): overall enhancement
reduction in the proportion of CD20-expressing cells (CD20; 0.5 μM, 48 h, compared with vehicle-treated controls, n=18, P<0.001): at least 40%
reduction in relative mean fluorescence intensity of CD20-expressing cells (CD20; 0.5 μM, 48 h, compared with vehicle-treated controls, n=18, P=0.001): at least 40%
concentration of maximum effect on CD20 down-regulation (CD20; [3]): 0.5 µM
time of maximum effect on CD20 down-regulation (CD20; [3]): 72 h
NK cell expansion (Raji cell line xenograft): induced NK cell expansion
tumor growth (Raji cell line xenograft): failed to inhibit tumor growth
CD5 expression on CLL cells (CD5): no changes
apoptosis in vitro (CLL cells [2]): no apoptosis
CD20 mRNA transcription (CD20 mRNA): very modest increase
